Measured values published in patent EP1577294A1, “S-SUBSTITUTED N-1- (HETERO)ARYL ALKYL-N - (HETERO)ARYL ALKYLYSOTHIOCARBAMIDES, METHOD FOR THE PRODUCTION THEREOF, PHYSIOLOGICALLY ACTIVE S-SUBSTITUTED N-1- (HETERO )ARYL ALKYL-N - (HETERO)ARYL ALKYLYSOTHIOCARBAMIDES,A PHARMACEUTICAL COMPOUND AND CURING METHOD” (Institut Fiziologicheski Aktivnykh Veschestv Rossiyskov …, priority 2002, dated 2004).

Tests used:
NMDA receptors = experiment: Patch-clamp: blockade of NMDA-induced currents in cerebral cortex neurons; format: cell-based, rat; conditions: for Blockade of NMDA-induced currents (%): neurons of the cerebral cortex
Text: (§1) The first was to determine the potentiating effect of new compounds on AMPA- and kainate-induced transmembrane currents in neurons of the Purkinje cerebellum of rats, and also blockade of NMDA-induced currents in the neurons of the cerebral cortex of rats;
(§2) Method for assessing properties of the compounds potentiating AMPA/KA-induced currents and blocking NMDA-induced currents.
(§3) Transmembrane currents were induced by activation of AMPA/KA receptors by applying solutions of kainic acid, the agonist of these receptors, and by activation of NMDA receptors by applying solutions of N-methyl-D-aspartic acid (NMDA), the agonist of these receptors, using the rapid superfusion method. Currents were recorded with the aid of borosilicate microelectrodes (resistance 1.5-2.5 mohm) filled with the following composition (in mM): KCl 100.0, EGTA 11.0, CaCl2 1.0, MgCl2 1.0, HEPES 10.0, ATP 5.0, pH 7.2.
(§4) An EPC9 (HEKA, Germany) was used for recording. Currents were recorded on a Pentium-100 PC hard disc using the Pulse program, also purchased from the HEKA company. The results were processed with the aid of the Pulsefit program (HEKA).

AMPA/KA receptors = experiment: Patch-clamp: potentiation of kainate-induced transmembrane currents in freshly isolated Purkinje neurons; format: cell-based, rat; conditions: for Potentiation of kainate-induced currents (%): Purkinje neurons of the rat cerebellum
Protocol: as §1, §2
The experiments were performed using the patch-clamp method on freshly-isolated Purkinje neurons taken from the cerebellum of rats (aged 14-16 days). A modified method was used for isolation. Slices of cerebellum 400-600 µm in thickness were placed in a thermostat-controlled chamber with a volume of 10 ml. The solution for isolation had the following composition (in mM): NaCl 150.0, KCl 5.0, CaCl2 2.0, MgSO4×7H2O 2.0, HEPES 10.0, glucose 15.0, pH 7.42. The slices were incubated in this solution for 60 minutes, after which this solution was replaced by a similar solution containing pronase (2 mg/ml) and collagenase (1 mg/ml) and incubation was continued for 70 minutes. After washing with the original solution for 20 minutes, the slices were placed in a Petri dish and dissociated mechanically with the aid of a Pasteur pipette. The solutions were continuously bubbled with 100% O2 at t° 34°C. The Purkinje neurons were placed in a working chamber with a volume of 0.6 ml. The working solution has the composition (in mM): NaCl 150.0, KCl 5.0, CaCl2 2.6, MgSO4×7H2O 2.0, HEPES 10.0, glucose 15.0, pH 7.36.
as §3, §4
The application of kainate induces inward transmembrane currents in the Purkinje neurons. Addition of the compounds to the perfusion solution elicits an increase in the amplitude of the currents. This increase depends on the compound, on its concentration, and on the time which has passed since the start of application of the substance.

## Br.O=C(O)c1ccc(CSC(=NCc2ccccc2)NCc2ccccc2)cc1 [Compound 15, S-4-Carboxybenzyl-N-benzyl-N'-benzylisothiocarbamide hydrobromide]
NMDA receptors; at 0.5-30 µM
  Blockade of NMDA-induced currents (%): 0 at 0.5-30 µM %
AMPA/KA receptors; at 0.5-30 µM
  Potentiation of kainate-induced currents (%): 0 at 0.5-30 µM %

## CSC(=NCc1ccccc1)NCc1ccccc1 [Compound 11, S-Methyl-N-benzyl-N'-benzylisothio-carbamide]
NMDA receptors; at 0.5-30 µM
  Blockade of NMDA-induced currents (%): 0 at 0.5-30 µM %
AMPA/KA receptors; at 0.5-30 µM
  Potentiation of kainate-induced currents (%): 0 at 0.5-30 µM %

## Nc1c2c(nc3ccccc13)CCCC2 [Tacrine, reference compound]
NMDA receptors; at 0.5-30 µM
  Blockade of NMDA-induced currents (%): 0 at 0.5-30 µM %
AMPA/KA receptors; at 0.5-30 µM
  Potentiation of kainate-induced currents (%): 0 at 0.5-30 µM %

## c1ccc(CN=C(NCc2ccccc2)SCc2ccccc2)cc1 [Compound 13, S-Benzyl-N-benzyl-N'-benzylisothiocarbamide]
NMDA receptors; at 0.5-30 µM
  Blockade of NMDA-induced currents (%): 0 at 0.5-30 µM %
AMPA/KA receptors; at 0.5-30 µM
  Potentiation of kainate-induced currents (%): 0 at 0.5-30 µM %

## Br.C1=CC(SC(=NCc2ccccc2)NCc2ccccc2)CCC1 (stereo not shown) [Compound 17, S-2-Cyclohexenyl-N-benzyl-N'-benzylisothiocarbamide hydrobromide]
NMDA receptors; at 0.5 µM
  Blockade of NMDA-induced currents (%): 30-50%
NMDA receptors; at 2 µM
  Blockade of NMDA-induced currents (%): 100%
AMPA/KA receptors; at 10 µM
  Potentiation of kainate-induced currents (%): 0% at 10 µM
AMPA/KA receptors; at 0.5-1.0 µM
  Potentiation of kainate-induced currents (%): 60-100% at 0.5-1.0 µM

## CCSC(=NCc1ccccc1)NCc1ccccc1.I [Compound 12, S-Ethyl-N-benzyl-N'-benzylisothiocarbamide hydriodide]
NMDA receptors; at 0.5-30 µM
  Blockade of NMDA-induced currents (%): 0 at 0.5-30 µM %
AMPA/KA receptors; at 0.5-30 µM
  Potentiation of kainate-induced currents (%): 0 at 0.5-30 µM %

## Br.CCOC(=O)CCSC(=NCc1ccccc1)NCc1ccccc1 [Compound 19, S-2-Ethoxycarbonyl-ethyl-N-benzyl-N'-benzylisothiocarbamide hydrobromide]
NMDA receptors; at 0.5-30 µM
  Blockade of NMDA-induced currents (%): 0 at 0.5-30 µM %
AMPA/KA receptors; at 0.5-30 µM
  Potentiation of kainate-induced currents (%): 0 at 0.5-30 µM %

## CC12CC3CC(C)(C1)CC(N)(C3)C2 [Memantine, reference compound]
NMDA receptors; at 17 µM
  Blockade of NMDA-induced currents (%): 50% at 17 µM
AMPA/KA receptors; at 30 µM
  Potentiation of kainate-induced currents (%): 15% at 30 µM

## NS(=O)(=O)c1cc2c(cc1Cl)NC(C1CC3C=CC1C3)NS2(=O)=O (stereo not shown) [Cyclothiazide, reference compound]
NMDA receptors; at 1-30 µM
  Blockade of NMDA-induced currents (%): 0 at 1-30 µM %
AMPA/KA receptors; at 1 µM
  Potentiation of kainate-induced currents (%): 20% at 1 µM

## Br.C=CCSC(=NCc1ccccc1)NCc1ccccc1 [Compound 16, S-Allyl-N-benzyl-N'-benzylisothiocarbamide hydrobromide]
NMDA receptors; at 0.5-30 µM
  Blockade of NMDA-induced currents (%): 0 at 0.5-30 µM %
AMPA/KA receptors; at 0.5-30 µM
  Potentiation of kainate-induced currents (%): 0 at 0.5-30 µM %

## Cl.O=[N+]([O-])c1ccc(CSC(=NCc2ccccc2)NCc2ccccc2)cc1 [Compound 14, S-4-Nitrobenzyl-N-benzyl-N'-benzylisothiocarbamide hydrochloride]
NMDA receptors; at 0.5-30 µM
  Blockade of NMDA-induced currents (%): 0 at 0.5-30 µM %
AMPA/KA receptors; at 0.5-30 µM
  Potentiation of kainate-induced currents (%): 0 at 0.5-30 µM %

## Br.c1ccc(CCSC(=NCc2ccccc2)NCc2ccccc2)cc1 [Compound 18, S-2-Phenylethyl-N-benzyl-N'-benzylisothiocarbamide hydrobromide]
NMDA receptors; 3 µM, observed range (average given separately)
  decrease in the NMDA-induced currents: 25-35%
NMDA receptors; NMDA-induced currents, cerebral cortex neurons
  Washing out time that returns the amplitude of the NMDA-induced currents to the control value: 3 to 6 min
NMDA receptors; at 3 µM (average), hydrobromide
  Blockade of NMDA-induced currents (%): 30% at 3 µM,
NMDA receptors; at 3 µM (average), listed as compound 18, hydrobromide
  Blockade of NMDA-induced currents (%): 30%
NMDA receptors; at 10 µM, hydrobromide
  Blockade of NMDA-induced currents (%): 100% at 10 µM
NMDA receptors; at 10 µM, listed as compound 18, hydrobromide
  Blockade of NMDA-induced currents (%): 100%
AMPA/KA receptors; 20 µM, observed range (average given separately)
  increase in kainate-induced currents: 8-12%
AMPA/KA receptors; at 20 µM (average), hydrobromide
  Potentiation of kainate-induced currents (%): 10% at 20 µM
AMPA/KA receptors; at 20 µM (average), listed as compound 18, hydrobromide
  Potentiation of kainate-induced currents (%): 10%
AMPA/KA receptors; kainate-induced currents, after 20 µM
  Washing out time that returns the amplitude of the responses to the control value: 3 to 5 min
